A short description of this data set: photoluminescence quantum yield (fraction); solvent given as SMILES.
Setting [1] is: in O=P(c1ccccc1)(c1ccccc1)c1ccccc1Oc1ccccc1P(=O)(c1ccccc1)c1ccccc1.

Where “and” joins values, the source holds several entries; their conditions need not be identical. Equal entries are not always repeated.

The values below come from the Deep4Chem optical property database.

Regarding `CC(C)[Si]1(C(C)C)c2cc(C=O)ccc2-c2ccc(N(C)C)cc21`, the photoluminescence quantum yield by setting is: (in C1CCCCC1) 0.08; (in CC#N) 0.81; (in CCO) 0.4; (in CCOCC) 0.79; (in CS(C)=O) 0.57; (in ClCCl) 0.71. Under “in c1ccccc1”, the photoluminescence quantum yield was 0.75.
Compound `O=C(O)c1ccc(-c2nc(-c3ccccc3)c3c4ccccc4ccn23)cc1` displayed a photoluminescence quantum yield (in CC#N) of 0.38.
For `Cc1cc(C)c([B-]2(c3c(C)cc(C)cc3C)[O+]=P(c3ccccc3)(c3ccccc3)c3cc(-c4ccccc4)sc3-c3sc(-c4ccccc4)cc32)c(C)c1`, the photoluminescence quantum yield (in C1CCOC1) was 0.58.
`O=c1oc2ccccc2cc1-c1cc2ccccc2o1`: the photoluminescence quantum yield reads like this: (in CC#N) 0.75; (in CCOC(C)=O) 0.79; (in CS(C)=O) 0.99; (in Cc1ccccc1) 0.88; (in O) 0.15.
In turn, `CC1(C)c2ccccc2N(c2ccc(-c3nc(C#N)c(C#N)nc3-c3ccc(N4c5ccccc5C(C)(C)c5ccccc54)cc3)cc2)c2ccccc21` returned a photoluminescence quantum yield (in Cc1ccccc1) of 0.2 and a photoluminescence quantum yield (in c1cc(-c2cccc(-n3c4ccccc4c4ccccc43)c2)cc(-n2c3ccccc3c3ccccc32)c1) of 0.67.
`CN(C)c1ccc(C(=O)Nc2ccccc2)cc1`: the photoluminescence quantum yield by setting is: (in C1CCCCC1) 0.0011; (in C1CCOC1) 0.0061; (in CC#N) 0.0107; (in CCOCC) 0.0036.
Take `O=c1oc2c(ccc3ccccc32)nc1-c1ccccc1`: the photoluminescence quantum yield by setting is: (in CC#N) 0.5; (in CCCCCC) 0.32; (in CO) 0.45; (in c1ccccc1) 0.46 and 0.534.
In turn, `COC(=O)c1c(C(=O)OC)c2ccc(C)nn2c1C` yielded a photoluminescence quantum yield (in CCCCCC) of 0.348.
As to `CCCCCOc1cc2oc(=O)c3c4occc4c4ccc5cccc6c(c1)c2c3c4c56`, the photoluminescence quantum yield (in C1CCOC1) was determined as 0.45.
Take `CC1=[N+]2C(=C(c3ccc4c(c3)Cc3ccccc3-4)c3ccc(C)n3[B-]2(F)F)C=C1c1cc2n(c1)[B-](F)(F)[N+]1=CC=CC1=C2c1c(C)cc(C)cc1C`: the photoluminescence quantum yield is 0.65 (in C1CCCCC1) and 0.11 (in CCOC(C)=O).
In the case of `COc1ccc(-n2nc(C#N)c(N3CCCCC3)n2)cc1`, the photoluminescence quantum yield (in CC#N) came out at 0.929.
Regarding `COc1ccc2c(c1)C(=O)c1ccccc1-2`, the photoluminescence quantum yield is 0.034 (in C1CCCCC1), 0.0018 (in CC#N) and 0 (in CCO).
`CC(C)(C)c1ccc2c(c1)c1cc(C(C)(C)C)ccc1n2-c1ccc(-c2ccc3c(c2)C2(c4cc(-c5ccc(-n6c7ccc(C(C)(C)C)cc7c7cc(C(C)(C)C)ccc76)cc5)ccc4-3)c3ccccc3S(=O)(=O)c3ccccc32)cc1`: the photoluminescence quantum yield came out at 0.88 (in ClCCl) and 0.83 (in c1cc(-n2c3ccccc3c3ccccc32)cc(-n2c3ccccc3c3ccccc32)c1).
For the compound `CCN(CC)c1ccc2cc(C#N)/c(=N\C(=O)c3ccc(F)cc3)oc2c1`, the photoluminescence quantum yield came to 0.3 (in CCO) and 0.83 (in ClCCl).
With `CCN(CC)c1ccc2c(-c3ccccc3C(=O)O)c3c([o+]c2c1)/C(=C/c1ccc2c(c1)c1ccccc1n2CC)CCC3`, the photoluminescence quantum yield (in ClCCl) turned out to be 0.08.
`CC1(C)c2ccccc2N(c2ccccc2)c2ccc(-c3ccc(C(=O)c4ccc(-c5ccc6c(c5)C(C)(C)c5ccccc5N6c5ccccc5)cc4)cc3)cc21` came in with a photoluminescence quantum yield under setting [1] of 0.53.
`CCN(CC)c1ccc2cc(/C(Cl)=C/C=C/C(=C(C#N)C#N)c3ccc4c(c3)c3ccccc3n4CC)c(=O)oc2c1`: the photoluminescence quantum yield came out at 0.019 (in CC(C)=O); 0.052 (in CCOC(C)=O); 0.042 (in CN(C)C=O); 0.018 (in CS(C)=O); 0.091 (in Cc1ccccc1); 0.096 (in ClCCl).
Regarding `CCCCCCCCC1(CCCCCCCC)c2cc(-c3ccc(C=C4C(=O)c5ccccc5C4=O)cc3)ccc2-c2ccc(-c3ccc(C=C4C(=O)c5ccccc5C4=O)cc3)cc21`, the photoluminescence quantum yield is 0.048 (in C1CCOC1); 0.116 (in CC(C)=O); 0.007 (in CCCCCC); 0.245 (in CS(C)=O); 0.011 (in Cc1ccccc1); 0.014 (in ClC(Cl)Cl).
`N#Cc1c(-n2c3ccccc3c3ccccc32)c(-n2c3ccccc3c3ccccc32)cc(-n2c3ccccc3c3ccccc32)c1-n1c2ccccc2c2ccccc21` had a photoluminescence quantum yield (in Cc1ccccc1) of 0.49.
With `Nc1cc(N)cc(-c2nc3ccccc3s2)c1`, the photoluminescence quantum yield (in C1CCCCC1) was 0.102; the photoluminescence quantum yield (in C1COCCO1) was found to be 0.06; the photoluminescence quantum yield (in CC#N) was determined as 0.05; the photoluminescence quantum yield (in CC(C)O) stood at 0.055; the photoluminescence quantum yield (in CCOC(C)=O) came to 0.053; the photoluminescence quantum yield (in CCOCC) was found to be 0.061. The same compound returned a photoluminescence quantum yield (in CO) of 0.015 and a photoluminescence quantum yield (in O) of 0.0091.
As for `COc1ccc(N(c2ccc(OC)cc2)c2ccc(-c3ccc4c(c3)C(=O)c3ccccc3C4=O)cc2)cc1`, the photoluminescence quantum yield was determined as 0 (in C1CCOC1); 0.265 (in CCCCCC); 0 (in CCOC(C)=O); 0.0045 (in Cc1ccccc1); 0.0538 (in ClC(Cl)(Cl)Cl); 0 (in ClCCl).
Turning to `COc1ccc(C(=O)c2c(C)c3ccc4cccc5c6cccc7ccc2c(c76)c3c45)cc1`, the photoluminescence quantum yield (in ClCCl) was found to be 0.018.
Regarding `CCCCC1=Cc2c3ccc4cccc5ccc(c6cc(-c7ccc(N(c8ccccc8)c8ccccc8)cc7)n(c26)P1(=O)c1ccccc1)c3c45` (centres undefined), the photoluminescence quantum yield by setting is: (in C1CCCCC1) 0.56; (in C1CCOC1) 0.49; (in C1COCCO1) 0.61; (in CC#N) 0.39; (in CC(C)=O) 0.52; (in CO) 0.29. In addition, the photoluminescence quantum yield came to 0.61 (in Cc1ccccc1), 0.58 (in ClC(Cl)Cl) and 0.62 (in ClCCl).
In the case of `c1ccc2c(c1)c1ccccc1c1ccccc21`, the photoluminescence quantum yield (in ClCCl) came to 0.02.
`F[B-]1(F)n2c(cc3oc4ccccc4c32)C(c2ccc(I)cc2)=C2C=c3oc4ccccc4c3=[N+]21` returned a photoluminescence quantum yield (in ClC(Cl)Cl) of 0.34.
With `O=c1oc2ccccc2cc1-c1ccc([N+](=O)[O-])cc1`, the photoluminescence quantum yield worked out at 0.006 (in C1CCOC1), 0.0022 (in CC#N), 0.0013 (in CS(C)=O) and 0.013 (in ClC(Cl)Cl).
With `FC(F)(F)c1ccc2oc3nc4oc5ccc(N(c6ccccc6)c6ccccc6)cc5c4cc3c2c1`, where the note is “in ClC(Cl)Cl”, the photoluminescence quantum yield worked out at 0.099.
Regarding `O=C1OC(c2ccccc2)=N/C1=C\c1ccc(N(c2ccccc2)c2ccccc2)cc1`, the photoluminescence quantum yield was 0.031 (in C1CCCCC1); 0.108 (in C1CCOC1); 0.045 (in C1COCCO1); 0.043 (in CC1CCCCC1); 0.014 (in CC#N); 0.055 (in CC(C)=O). The photoluminescence quantum yield was found to be 0.028 (in CC(C)CC(C)(C)C); 0.029 (in CCCCC); 0.031 (in CCCCCC); 0.034 (in CCCCCCC); 0.036 (in CCCCOCCCC); 0.095 (in CCOC(C)=O). Also, the photoluminescence quantum yield by setting is: (in CCOCC) 0.072; (in CN(C)C=O) 0.014; (in CS(C)=O) 0.012; (in Cc1ccccc1) 0.034; (in ClC(Cl)Cl) 0.028.
Where the note is “in C1CCCCC1”, `COc1ccc2c3c(c4ccc(OC)cc4c2c1)C(C)(C)c1ccccc1-3` registered a photoluminescence quantum yield of 0.19.
In the case of `CN(C)c1ccc(-c2ccc(-c3cc(N4CCCCC4)c(C#N)c4c3-c3ccccc3CC4)s2)cc1`, the photoluminescence quantum yield (in C1CCOC1) was 0.85.
Take `CCCCCCCC1=C(C)C(=O)n2c1cc1[nH]c(C(=O)OC)c(C)c1c2=O`: the photoluminescence quantum yield reads like this: (in C1CCCCC1) 0.02; (in CO) 0.73; (in CS(C)=O) 0.83; (in ClC(Cl)Cl) 0.52; (in c1ccccc1) 0.1.
`c1ccc(-c2nc3ccccc3nc2-c2ccc(-n3c4ccccc4c4ccccc43)cc2)cc1`: where the note is “in Cc1ccccc1”, the photoluminescence quantum yield amounted to 0.32.
As to `COCCOCCOCCOCC(COCCOCCOCCOC)Oc1cc(/C=C/c2ccc(/C=C(\C#N)c3ccccc3)cc2)c(OC(COCCOCCOCCOC)COCCOCCOCCOC)cc1/C=C/c1ccc(/C=C(\C#N)c2ccccc2)cc1`, the photoluminescence quantum yield (in ClCCl) turned out to be 0.72.
For the compound `c1ccc(-c2nc3c(ccc4[nH]ccc43)o2)cc1`, the photoluminescence quantum yield reads like this: (in C1CCCCC1) 0.6; (in C1COCCO1) 0.78; (in CC#N) 0.72; (in CO) 0.55; (in Cc1ccccc1) 0.69; (in O) 0.54.
For `CCCCN1/C(=C/C=C/C2=[N+](C)c3ccccc3C2(C)C)C(C)(C)c2cc(Br)ccc21`, under “in CS(C)=O”, the photoluminescence quantum yield was found to be 0.12.
For `O=P1(c2ccccc2)C(c2ccc(N(c3ccccc3)c3ccccc3)cc2)=Cc2cc3ccccc3cc21` (centres undefined), the photoluminescence quantum yield (in ClCCl) was found to be 0.85.
With `Cc1cccc(C2=Cc3c4ccccc4c4ccccc4[n+]3[B-](F)(F)O2)c1`, where the note is “in ClC(Cl)Cl”, the photoluminescence quantum yield was 0.188.
`c1ccc(-c2nc(-c3ccccc3)nc(-c3ccc(N4c5ccccc5C5(c6ccccc64)c4ccccc4N(c4ccc(-c6nc(-c7ccccc7)nc(-c7ccccc7)n6)cc4)c4ccccc45)cc3)n2)cc1`: the photoluminescence quantum yield under setting [1] came to 0.79.
For the compound `CC(C)[Si](C#Cc1c2ccc(C(C)(C)C)cc2c(C#Cc2c3ccc(C(C)(C)C)cc3c(C#C[Si](C(C)C)(C(C)C)C(C)C)c3ccc(C(C)(C)C)cc23)c2ccc(C(C)(C)C)cc12)(C(C)C)C(C)C`, the photoluminescence quantum yield (in Cc1ccccc1) is 0.02.
